Data: patent publication US20120178915A1, “PYRIMIDINE DERIVATIVES AND ANALOGS, PREPARATION METHOD AND USE THEREOF” (priority 2009, published 2012)
In brackets after ≈: the same amount, converted by molar mass. Like-named read-outs stand apart in the source and are kept apart here.

What was measured:
Bacillus anthracis 1 = assay: microbe, parasite or virus in culture; format: cell-based; conditions: Bacillus anthracis, 1, 24 h, read-out: Minimum Inhibitory Concentration, MIC
[1] = tested on: Streptococcus pneumoniae 6301; assay: microbe, parasite or virus in culture; format: cell-based; conditions: 37° C., 24 h, read-out: Minimum Inhibitory Concentration, MIC
[2] = tested on: Staphylococcus aureus 703 (MRSA); assay: microbe, parasite or virus in culture; format: cell-based; conditions: 24 h, read-out: Minimum Inhibitory Concentration, MIC
[3] = tested on: Enterococcus faecalis F2518 (VRE); assay: microbe, parasite or virus in culture; format: cell-based; conditions: 24 h, read-out: Minimum Inhibitory Concentration, MIC
[4] = tested on: Streptococcus pneumoniae M2; assay: microbe, parasite or virus in culture; format: cell-based; conditions: 37° C., 24 h, read-out: Minimum Inhibitory Concentration, MIC
[5] = tested on: Corynebacterium diphtheriae; assay: microbe, parasite or virus in culture; format: cell-based; conditions: 37° C., 24 h, read-out: Minimum Inhibitory Concentration, MIC
Streptococcus 10342 = assay: MIC broth microdilution; format: cell-based; conditions: 37° C., 24 h, read-out: Minimum Inhibitory Concentration, MIC
[6] = tested on: Streptococcus pneumoniae 6303 (PRSP); assay: microbe, parasite or virus in culture; format: cell-based; conditions: 24 h, read-out: Minimum Inhibitory Concentration, MIC
[7] = tested on: Enterococcus faecalis 19433; assay: microbe, parasite or virus in culture; format: cell-based; conditions: 37° C., 24 h, read-out: Minimum Inhibitory Concentration, MIC
Pyogenic Streptococcus = assay: microbe, parasite or virus in culture; format: cell-based; conditions: 37° C., 24 h, read-out: Minimum Inhibitory Concentration, MIC
[8] = tested on: Streptococcus pneumoniae 10351; assay: microbe, parasite or virus in culture; format: cell-based; conditions: 37° C., 24 h, read-out: Minimum Inhibitory Concentration, MIC
[9] = tested on: Staphylococcus aureus 705 (MRSA); assay: microbe, parasite or virus in culture; format: cell-based; conditions: 24 h, read-out: Minimum Inhibitory Concentration, MIC
[10] = tested on: Enterococcus faecalis 1513 (VRE); assay: microbe, parasite or virus in culture; format: cell-based; conditions: 24 h, read-out: Minimum Inhibitory Concentration, MIC
[11] = tested on: Enterococcus faecalis 29212; assay: microbe, parasite or virus in culture; format: cell-based; conditions: 37° C., 24 h, read-out: Minimum Inhibitory Concentration, MIC
[12] = tested on: Staphylococcus aureus 29231; assay: microbe, parasite or virus in culture; format: cell-based; conditions: 37° C., 24 h, read-out: Minimum Inhibitory Concentration, MIC
Gram-positive Bacteria = format: cell-based; conditions: Enterococcus faecalis (VRE), Staphylococcus aureus (MRSA), Streptococcus pneumoniae 6303 (PRSP); Bacillus cereus, Bacillus subtilis, Enterococcus faecalis, Staphylococcus aureus, Streptococcus pneumoniae, Streptococcus agalactiae B and streptococci 4
MIC broth microdilution = format: cell-based; conditions: Microorganism 33, Dermatophytosis; 37° C., 24 h; read-out: Minimum Inhibitory Concentration, MIC
[13] = tested on: Enterococcus fecal F631 (VRE); assay: organism not typed; format: cell-based; conditions: 24 h, read-out: Minimum Inhibitory Concentration, MIC
green Streptococcus 1009 = assay: microbe, parasite or virus in culture; format: cell-based; conditions: 37° C., 24 h, read-out: Minimum Inhibitory Concentration, MIC
MRSA 2152 = assay: Antibacterial studies in vivo, survival of mice infected with MRSA 2152; conditions: dose mg/kg: ciprofloxacin 20, 3: 30, 7: 40, 21: 50, 33: 25, 70: 70; for Survival rate (%) (life prolongation rate): (survival days of test group − blank group)/blank group ×100%, MRSA 2152 mice, tail vein; for Survival: mice inoculated intraperitoneally with MRSA 2152, test compound by tail vein, repeated after six hours, saline 1.3 days
Bacillus subtilis 168 = assay: microbe, parasite or virus in culture; format: cell-based; conditions: 37° C., 24 h, read-out: Minimum Inhibitory Concentration, MIC
Bacillus cereus 246 = assay: microbe, parasite or virus in culture; format: cell-based; conditions: 37° C., 24 h, read-out: Minimum Inhibitory Concentration, MIC
[14] = tested on: Staphylococcus aureus 704 (MRSA); assay: microbe, parasite or virus in culture; format: cell-based; conditions: 24 h, read-out: Minimum Inhibitory Concentration, MIC
[15] = tested on: Streptococcus agalactiae B; assay: microbe, parasite or virus in culture; format: cell-based; conditions: 37° C., 24 h, read-out: Minimum Inhibitory Concentration, MIC
[16] = tested on: Streptococcus pneumoniae 62; assay: microbe, parasite or virus in culture; format: cell-based; conditions: 37° C., 24 h, read-out: Minimum Inhibitory Concentration, MIC
Bacillus cereus 2 = assay: microbe, parasite or virus in culture; format: cell-based; conditions: 37° C., 24 h, read-out: Minimum Inhibitory Concentration, MIC
Oral candidiasis = assay: MIC broth microdilution; format: cell-based; conditions: Microorganism 32, Oral candidiasis; 37° C., 24 h; read-out: Minimum Inhibitory Concentration, MIC
Clostridium perfringens = assay: microbe, parasite or virus in culture; format: cell-based; conditions: 24 h, read-out: Minimum Inhibitory Concentration, MIC
[17] = tested on: Staphylococcus aureus 43300 (MRSA); assay: microbe, parasite or virus in culture; format: cell-based; conditions: 24 h, read-out: Minimum Inhibitory Concentration, MIC
[18] = tested on: Enterococcus faecalis 583 (VRE); assay: microbe, parasite or virus in culture; format: cell-based; conditions: 24 h, read-out: Minimum Inhibitory Concentration, MIC
Clostridium tetani = assay: microbe, parasite or virus in culture; format: cell-based; conditions: 24 h
Bacillus subtilis 82 = assay: microbe, parasite or virus in culture; format: cell-based; conditions: 37° C., 24 h, read-out: Minimum Inhibitory Concentration, MIC
[19] = tested on: Streptococcus bovis 10035; assay: microbe, parasite or virus in culture; format: cell-based; conditions: Streptococcus equinus, 37° C., 24 h, read-out: Minimum Inhibitory Concentration, MIC
[20] = tested on: Enterococcus faecalis 51299; assay: microbe, parasite or virus in culture; format: cell-based; conditions: Enterococcus faecalis, 51299, 24 h, read-out: Minimum Inhibitory Concentration, MIC
[21] = read-out: Minimum Inhibitory Concentration, MIC, Microorganism 29, Clostridium tetani, 37° C.
[22] = read-out: Minimum Inhibitory Concentration, MIC, Microorganism 30, Clostridium tetani (second line of that name), 37° C.

SMILES | MIC (Bacillus anthracis 1) [µM] | MIC [1] [µM] | MIC [2] [µM] | MIC [3] [µM] | MIC [4] [µM] | MIC [5] [µM] | MIC (Streptococcus 10342) [µM] | MIC [6] [µM] | MIC [7] [µM] | MIC (Pyogenic Streptococcus) [µM] | MIC [8] [µM] | MIC [9] [µM] | MIC [10] [µM] | MIC [11] [µM] | MIC [12] [µM] | inhibition of growth (conclusion from MICs) (Gram-positive Bacteria) | MIC (MIC broth microdilution) [µM] | MIC [13] [µM] | MIC (green Streptococcus 1009) [µM] | Survival rate (%) (life prolongation rate) (MRSA 2152) | other results
Cc1c(-c2ccc(C(F)(F)F)cc2)[nH]c2c(-c3ccc(Cl)cc3Cl)c(C3CC3)nn2c1=O [Compound 21] | 13.5 (≈ 6.46 µg/mL) | 0.23 (≈ 0.11 µg/mL) | 0.42 (≈ 0.201 µg/mL) | 2.5 (≈ 1.2 µg/mL) | 0.02 (≈ 0.00957 µg/mL) | 30.3 (≈ 14.5 µg/mL) | 1.35 (≈ 0.646 µg/mL) | 1.33 (≈ 0.636 µg/mL) | 12.3 (≈ 5.88 µg/mL) | 1.23 (≈ 0.588 µg/mL) | 1.25 (≈ 0.598 µg/mL) | 0.3 (≈ 0.143 µg/mL) | 2.3 (≈ 1.1 µg/mL) | 0.32 (≈ 0.153 µg/mL) | 0.6 (≈ 0.287 µg/mL) | significantly inhibited the growth | 33.7 (≈ 16.1 µg/mL) | 0.33 (≈ 0.158 µg/mL) | 1.55 (≈ 0.741 µg/mL) | 133.2 | Survival (MRSA 2152): 3.2 days; MIC (Bacillus subtilis 168): 0.46 µM (≈ 0.22 µg/mL); MIC (Bacillus cereus 246): 1.55 µM (≈ 0.741 µg/mL); MIC [14]: 0.28 µM (≈ 0.134 µg/mL); MIC [15]: 0.55 µM (≈ 0.263 µg/mL); MIC [16]: 0.25 µM (≈ 0.12 µg/mL); MIC (Bacillus cereus 2): 0.36 µM (≈ 0.172 µg/mL); MIC (Oral candidiasis): 88.5 µM (≈ 42.3 µg/mL); MIC (Clostridium perfringens): 32 µM (≈ 15.3 µg/mL); MIC [17]: 0.35 µM (≈ 0.167 µg/mL); MIC [18]: 0.11 µM (≈ 0.0526 µg/mL); MIC (Clostridium tetani; [21]): 30.2 µM (≈ 14.4 µg/mL); MIC (Clostridium tetani; [22]): 80.3 µM (≈ 38.4 µg/mL); MIC (Bacillus subtilis 82): 0.68 µM (≈ 0.325 µg/mL); MIC [19]: 1.25 µM (≈ 0.598 µg/mL); MIC [20]: 10.5 µM (≈ 5.02 µg/mL)
Cc1c(-c2ccc(C#N)cc2)[nH]c2c(-c3ccc(Cl)cc3Cl)c(-c3ccccc3)nn2c1=O [Compound 70] | 12.5 (≈ 5.89 µg/mL) | 0.2 (≈ 0.0943 µg/mL) | 1.25 (≈ 0.589 µg/mL) | 0.55 (≈ 0.259 µg/mL) | 0.63 (≈ 0.297 µg/mL) | 45.2 (≈ 21.3 µg/mL) | 1.23 (≈ 0.58 µg/mL) | 0.04 (≈ 0.0189 µg/mL) | 0.23 (≈ 0.108 µg/mL) | 1.33 (≈ 0.627 µg/mL) | 0.55 (≈ 0.259 µg/mL) | 0.55 (≈ 0.259 µg/mL) | 2.5 (≈ 1.18 µg/mL) | 2.5 (≈ 1.18 µg/mL) | 0.55 (≈ 0.259 µg/mL) | significantly inhibited the growth | 125 (≈ 59.1 µg/mL) | 0.55 (≈ 0.259 µg/mL) | 0.23 (≈ 0.108 µg/mL) | 253.8 | Survival (MRSA 2152): 4.6 days; MIC (Bacillus subtilis 168): 1.25 µM (≈ 0.589 µg/mL); MIC (Bacillus cereus 246): 1.32 µM (≈ 0.622 µg/mL); MIC [14]: 0.35 µM (≈ 0.165 µg/mL); MIC [15]: 0.25 µM (≈ 0.118 µg/mL); MIC [16]: 10.5 µM (≈ 4.95 µg/mL); MIC (Bacillus cereus 2): 0.31 µM (≈ 0.146 µg/mL); MIC (Oral candidiasis): 120 µM (≈ 56.8 µg/mL); MIC (Clostridium perfringens): 30.6 µM (≈ 14.4 µg/mL); MIC [17]: 0.56 µM (≈ 0.264 µg/mL); MIC [18]: 1.25 µM (≈ 0.589 µg/mL); MIC (Clostridium tetani; [21]): 80.2 µM (≈ 37.8 µg/mL); MIC (Clostridium tetani; [22]): 50.2 µM (≈ 23.7 µg/mL); MIC (Bacillus subtilis 82): 1.25 µM (≈ 0.589 µg/mL); MIC [19]: 0.02 µM (≈ 0.00943 µg/mL); MIC [20]: 2.5 µM (≈ 1.18 µg/mL)
Cc1nn2c(=O)cc(-c3ccc(C#N)cc3)[nH]c2c1-c1ccc(C(F)(F)F)cc1 [Compound 3] | 25.6 (≈ 10.1 µg/mL) | 0.3 (≈ 0.118 µg/mL) | 1.25 (≈ 0.493 µg/mL) | 0.48 (≈ 0.189 µg/mL) | 0.04 (≈ 0.0158 µg/mL) | 62.1 (≈ 24.5 µg/mL) | 1.33 (≈ 0.524 µg/mL) | 0.32 (≈ 0.126 µg/mL) | 0.42 (≈ 0.166 µg/mL) | 0.12 (≈ 0.0473 µg/mL) | 1.25 (≈ 0.493 µg/mL) | 0.46 (≈ 0.181 µg/mL) | 1.3 (≈ 0.513 µg/mL) | 0.23 (≈ 0.0907 µg/mL) | 0.22 (≈ 0.0868 µg/mL) | significantly inhibited the growth | 59.1 (≈ 23.3 µg/mL) | 0.33 (≈ 0.13 µg/mL) | 0.31 (≈ 0.122 µg/mL) | 216.8 | Survival (MRSA 2152): 4.3 days; MIC (Bacillus subtilis 168): 2.5 µM (≈ 0.986 µg/mL); MIC (Bacillus cereus 246): 0.53 µM (≈ 0.209 µg/mL); MIC [14]: 0.63 µM (≈ 0.248 µg/mL); MIC [15]: 0.16 µM (≈ 0.0631 µg/mL); MIC [16]: 10.5 µM (≈ 4.14 µg/mL); MIC (Bacillus cereus 2): 2.5 µM (≈ 0.986 µg/mL); MIC (Oral candidiasis): 53.1 µM (≈ 20.9 µg/mL); MIC (Clostridium perfringens): 55.3 µM (≈ 21.8 µg/mL); MIC [17]: 0.36 µM (≈ 0.142 µg/mL); MIC [18]: 0.63 µM (≈ 0.248 µg/mL); MIC (Clostridium tetani; [21]): 50.3 µM (≈ 19.8 µg/mL); MIC (Clostridium tetani; [22]): 23.2 µM (≈ 9.15 µg/mL); MIC (Bacillus subtilis 82): 5 µM (≈ 1.97 µg/mL); MIC [19]: 2.01 µM (≈ 0.793 µg/mL); MIC [20]: 0.55 µM (≈ 0.217 µg/mL)
